The values that follow come from article PMC6722823, “Peptide Antagonists for P-selectin Discriminate between Sulfatide-Dependent Platelet Aggregation and PSGL-1-Mediated Cell Adhesion” (Journal of Clinical Medicine, 2019).

What all share (type): binding
Common to all, as to settings: Fc fusion protein 40 nM

For one assay, the target named is T1, E-selectin (Homo sapiens, UniProt P16581).
T1 construct: purchased R&D systems (Minneapolis, MN, USA)
As to the kind of experiment: Surface plasmon resonance (Biacore), sulfatide-coated L1 chip, E-selectin. As to the method: (§1) A Biacore 2000 instrument (Biacore AB, Uppsala, Sweden) was used to analyze the interaction between sulfatides and P-, L, and E-selectins, as described. Experiments were performed at room temperature using running buffer (20 mmol/L HEPES, 150 mmol/L NaCl, 1 mmol/L CaCl2, 0.005% Surfactant P20, pH 7.4). Sulfatides were immobilized on L1 sensor chips at 5 μL/min according to the manufacturer’s instructions. Binding kinetics of human fusion proteins IgG and P-, L- and E- selectins to the immobilized sulfatides were determined by injection of the fusion proteins. At the end of each injection, the sensor chips were regenerated with 100 mmol/L NaOH and equilibrated with running buffer. All curves were corrected for non-specific binding by an online baseline subtraction of ligand binding to a control flow channel. Binding kinetics were analyzed using BIAevaluation software (V2.1; Pharmacia Biosensor, Uppsala, Sweden).

The target of a further assay is T2, L-selectin (Homo sapiens, UniProt P14151).
T2 sequence (P14151 39-318 limits assumed): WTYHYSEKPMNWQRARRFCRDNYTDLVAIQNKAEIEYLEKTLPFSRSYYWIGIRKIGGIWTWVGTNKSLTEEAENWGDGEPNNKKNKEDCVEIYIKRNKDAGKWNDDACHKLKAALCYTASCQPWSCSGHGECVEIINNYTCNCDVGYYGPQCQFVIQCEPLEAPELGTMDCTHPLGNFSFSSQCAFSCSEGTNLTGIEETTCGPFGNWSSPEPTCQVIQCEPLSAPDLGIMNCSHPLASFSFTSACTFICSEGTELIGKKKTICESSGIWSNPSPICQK
As to the kind of experiment: Surface plasmon resonance (Biacore), sulfatide-coated L1 chip, L-selectin. As to the method:
as §1

In the next assay the target is T3, P-selectin (Homo sapiens, UniProt P16109).
T3 construct: purchased R&D systems (Minneapolis, MN, USA)
As to the kind of experiment: Surface plasmon resonance (Biacore), sulfatide-coated L1 chip, P-selectin. The method, then: as §1
(In general: Surface plasmon resonance follows binding to a sensor surface in real time, without labels.)

T1 sequence (P16581 with tags, fused parts or gaps limits assumed): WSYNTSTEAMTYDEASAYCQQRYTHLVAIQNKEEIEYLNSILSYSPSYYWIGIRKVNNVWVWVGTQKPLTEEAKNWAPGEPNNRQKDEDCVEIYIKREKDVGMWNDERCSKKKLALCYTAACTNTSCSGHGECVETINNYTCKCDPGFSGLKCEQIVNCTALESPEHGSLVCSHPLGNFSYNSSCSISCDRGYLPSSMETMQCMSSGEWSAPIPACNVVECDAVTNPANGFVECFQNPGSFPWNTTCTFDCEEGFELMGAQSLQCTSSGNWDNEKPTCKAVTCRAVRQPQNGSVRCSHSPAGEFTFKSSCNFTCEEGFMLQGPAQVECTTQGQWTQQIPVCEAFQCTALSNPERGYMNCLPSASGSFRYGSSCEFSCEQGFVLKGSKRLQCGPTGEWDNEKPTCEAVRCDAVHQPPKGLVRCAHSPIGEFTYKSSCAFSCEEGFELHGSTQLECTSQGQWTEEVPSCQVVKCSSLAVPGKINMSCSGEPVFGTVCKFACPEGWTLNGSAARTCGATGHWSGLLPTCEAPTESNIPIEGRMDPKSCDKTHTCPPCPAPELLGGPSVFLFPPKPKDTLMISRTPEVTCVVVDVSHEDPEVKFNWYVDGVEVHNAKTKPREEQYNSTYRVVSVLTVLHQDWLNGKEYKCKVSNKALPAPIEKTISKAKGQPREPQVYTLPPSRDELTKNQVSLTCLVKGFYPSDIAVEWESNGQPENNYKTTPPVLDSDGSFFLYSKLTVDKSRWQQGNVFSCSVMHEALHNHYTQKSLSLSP
T3 sequence (P16109 with tags, fused parts or gaps limits assumed): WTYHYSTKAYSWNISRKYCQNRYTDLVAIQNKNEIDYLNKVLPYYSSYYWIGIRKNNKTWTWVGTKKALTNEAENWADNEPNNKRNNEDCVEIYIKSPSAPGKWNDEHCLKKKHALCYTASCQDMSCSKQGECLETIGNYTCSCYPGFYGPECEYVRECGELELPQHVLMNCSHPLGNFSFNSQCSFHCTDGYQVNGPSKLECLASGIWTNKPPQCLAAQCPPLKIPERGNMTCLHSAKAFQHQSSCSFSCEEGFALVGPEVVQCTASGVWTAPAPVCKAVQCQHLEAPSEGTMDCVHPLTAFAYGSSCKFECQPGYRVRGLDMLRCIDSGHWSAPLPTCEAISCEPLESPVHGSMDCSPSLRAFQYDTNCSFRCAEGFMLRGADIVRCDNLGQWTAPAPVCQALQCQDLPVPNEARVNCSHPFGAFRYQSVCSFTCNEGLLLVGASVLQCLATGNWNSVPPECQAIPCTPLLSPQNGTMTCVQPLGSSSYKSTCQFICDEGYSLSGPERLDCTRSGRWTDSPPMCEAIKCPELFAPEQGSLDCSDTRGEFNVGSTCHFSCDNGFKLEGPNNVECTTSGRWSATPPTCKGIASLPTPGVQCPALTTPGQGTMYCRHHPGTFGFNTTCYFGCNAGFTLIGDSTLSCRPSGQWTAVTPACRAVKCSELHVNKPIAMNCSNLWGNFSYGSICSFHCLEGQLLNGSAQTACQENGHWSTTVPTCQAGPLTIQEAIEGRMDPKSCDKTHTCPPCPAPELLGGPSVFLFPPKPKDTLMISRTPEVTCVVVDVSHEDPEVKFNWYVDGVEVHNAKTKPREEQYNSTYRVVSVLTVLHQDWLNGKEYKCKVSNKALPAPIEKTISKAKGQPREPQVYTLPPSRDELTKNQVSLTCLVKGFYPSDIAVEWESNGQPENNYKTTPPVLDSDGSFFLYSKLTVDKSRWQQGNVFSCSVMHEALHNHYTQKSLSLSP

For “cerebroside sulfate, bovine [Sulfatides]”, at E-selectin, the “Binding of E-selectin to sulfatide-coated sensor chip” value is reported as “not E-selectin”. The “Binding of L-selectin to sulfatide-coated sensor chip” value at L-selectin was “bind”. Moreover, the “Binding of P-selectin to sulfatide-coated sensor chip” value at P-selectin was “bind”.
